Where a name gives a salt, the structure may show the parent alone.

The test deals with T1, haematopoietic prostaglandin D synthase (H-PGDS) (Homo sapiens, UniProt O60760).
T1 construct: Full length human H-PGDS cDNA (Invitrogen Ultimate ORF 10H13026) was amplified by PCR; 6-His (N); TEV protease cleavage site (N); made in house; host or cells: E. coli BL21 (DE3*), vector pET22b+
T1 sequence (O60760 whole entry): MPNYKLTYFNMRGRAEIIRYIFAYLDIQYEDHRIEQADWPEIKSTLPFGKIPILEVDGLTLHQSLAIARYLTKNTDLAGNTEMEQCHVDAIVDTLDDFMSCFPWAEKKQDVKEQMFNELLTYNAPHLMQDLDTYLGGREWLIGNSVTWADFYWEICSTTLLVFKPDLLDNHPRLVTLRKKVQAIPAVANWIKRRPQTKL
Description: H-PGDS RapidFire high throughput mass spectrometry assay (conversion of PGH2 to PGD2). It is filed as biochemical. The settings on record: 10 nM H-PGDS, PGH2 formed in situ by COX-2 from arachidonic acid; read-out: Potency Range (mean pIC50) (converted). The method, boiled down:
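RapidFire SPE–MS read-out calculated percent conversion from relative PGD2 and PGF2α (substrate surrogate) levels. Recombinant full-length human H-PGDS (His-tag, E. coli) turned over PGH2, produced in situ at ˜10 μM by human COX-2 (FLAG-tag, Sf9 cells) acting on arachidonic acid.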
On to `O=C(NC1CN(c2ncc(F)cn2)C1)[C@H]1C[C@H](Oc2cc(F)cc3scnc23)C1` [Example 136, (trans)-3-((6-Fluorobenzo[d]thiazol-4-yl)oxy)-N-(1-(5-fluoropyrimidin-2-yl)azetidin-3-yl)cyclobutanecarboxamide], for which the IC50 is 10 to 79.4 nM. In the case of `COc1ccc(F)cc1O[C@H]1C[C@H](C(=O)Nc2nc(C3CC3)cs2)C1` [Example 167, (trans)-N-(4-Cyclopropylthiazol-2-yl)-3-(5-fluoro-2-methoxyphenoxy)cyclobutanecarboxamide] it was below 10 nM; in that of `N#Cc1cnc(NC(=O)[C@H]2C[C@H](Oc3cccc4ccoc34)C2)s1` [Example 261, (trans)-3-(Benzofuran-7-yloxy)-N-(5-cyanothiazol-2-yl)cyclobutanecarboxamide], 10 to 79.4 nM. As to `O=C(NC1CCN(C(=O)OCc2ccccc2)CC1)N1CC(Oc2cccc3scnc23)C1` [Example 89, Benzyl 4-(3-(benzo[d]thiazol-4-yloxy)azetidine-1-carboxamido)piperidine-1-carboxylate], the IC50 is 10 to 79.4 nM. Consider `COC(=O)C12CCC(NC(=O)[C@H]3C[C@H](Oc4cccc5scnc45)C3)(CC1)CC2` [Example 326, Methyl 4-((trans)-3-(benzo[d]thiazol-4-yloxy)cyclobutane-1-carboxamido)bicyclo[2.2.2]octane-1-carboxylate], for which the IC50 was 10 to 79.4 nM.

Take `O=C(NC1CCCCC1)N[C@H]1C[C@H](NC(=O)[C@H]2C[C@H](Oc3cccc4scnc34)C2)C1` [Example 67, (trans)-3-(Benzo[d]thiazol-4-yloxy)-N-((trans)-3-(3-cyclohexylureido)cyclobutyl)cyclobutanecarboxamide]: the IC50 is 100 to 1000 nM. As to `O=C(Nc1ccc(N2CCOCC2)cc1)N1CC(Oc2cccc3scnc23)C1` [Example 310, 3-(Benzo[d]thiazol-4-yloxy)-N-(4-morpholinophenyl)azetidine-1-carboxamide], the IC50 was 10 to 79.4 nM.

Consider `O=C(N[C@H]1CC[C@H](N2CCOC2=O)CC1)N1CC(Oc2cccc3scnc23)C1` [Example 103, 3-(Benzo[d]thiazol-4-yloxy)-N-((trans)-4-(2-oxooxazolidin-3-yl)cyclohexyl)azetidine-1-carboxamide], for which the IC50 was 100 to 1000 nM. The result for `CC(C)(C)c1nnc(NC(=O)[C@H]2C[C@H](Oc3cc(F)ccc3OC(F)F)C2)o1` [Example 16, (trans)-N-(5-(tert-Butyl)-1,3,4-oxadiazol-2-yl)-3-(2-(difluoromethoxy)-5-fluorophenoxy)cyclobutanecarboxamide] reads 10 to 79.4 nM; that for `CC(C)(O)CO[C@H]1CC[C@H](NC(=O)N2CC(Oc3cccc4scnc34)C2)CC1` [Example 106, 3-(Benzo[d]thiazol-4-yloxy)-N-((trans)-4-(2-hydroxy-2-methylpropoxy)cyclohexyl)azetidine-1-carboxamide], 10 to 79.4 nM. For `COc1ccc(F)cc1O[C@H]1C[C@H](C(=O)Nc2nc(C(=O)N(C)C)co2)C1` [Example 158, 2-((trans)-3-(5-Fluoro-2-methoxyphenoxy)cyclobutanecarboxamido)-N,N-dimethyloxazole-4-carboxamide], the IC50 was 10 to 79.4 nM. The result for `COCCO[C@H]1CC[C@H](NC(=O)N2CC(Oc3cc(F)cc4scnc34)C2)CC1` [Example 128, 3-((6-Fluorobenzo[d]thiazol-4-yl)oxy)-N-((trans)-4-(2-methoxyethoxy)cyclohexyl)azetidine-1-carboxamide] reads 10 to 79.4 nM. In the case of `CN(C)C(=O)c1coc(NC(=O)[C@H]2C[C@H](Oc3cccc4cccnc34)C2)n1` [Example 172, N,N-Dimethyl-2-((trans)-3-(quinolin-8-yloxy)cyclobutanecarboxamido)oxazole-4-carboxamide] it was 10 to 79.4 nM. In the case of `CC(N[C@H]1CC[C@H](NC(=O)N2CC(Oc3cccc4scnc34)C2)CC1)C(F)F` (mixture of isomers) [Example 40, Racemic 3-(Benzo[d]thiazol-4-yloxy)-N-((trans)-4-((1,1-difluoropropan-2-yl)amino)cyclohexyl)azetidine-1-carboxamide] it was 10 to 79.4 nM. As to `O=C(N[C@H]1CC[C@@H](NC(CO)C(F)(F)F)CC1)N1CC(Oc2cc(F)cc3scnc23)C1` (mixture of isomers) [Example 124, Racemic 3-((6-Fluorobenzo[d]thiazol-4-yl)oxy)-N-((cis)-4-((1,1,1-trifluoro-3-hydroxypropan-2-yl)amino)cyclohexyl)azetidine-1-carboxamide], the IC50 was 10 to 79.4 nM.

On to `COc1ccc(F)cc1O[C@H]1C[C@H](C(=O)NC2CCN(c3ncc(C#N)s3)C2)C1` (mixture of isomers) [Example 144, Racemic (trans)-N-(1-(5-Cyanothiazol-2-yl)pyrrolidin-3-yl)-3-(5-fluoro-2-methoxyphenoxy)cyclobutanecarboxamide], for which the IC50 was 10 to 79.4 nM. In the case of `O=C(Nc1cc(C2CC2)n[nH]1)[C@H]1C[C@H](Oc2cccc3scnc23)C1` [Example 302, (trans)-3-(Benzo[d]thiazol-4-yloxy)-N-(3-cyclopropyl-1H-pyrazol-5-yl)cyclobutanecarboxamide], the IC50 is 10 to 79.4 nM. The result for `Cn1nc(C2CC2)cc1NC(=O)N1CC(Oc2cccc3scnc23)C1` [Example 314, 3-(Benzo[d]thiazol-4-yloxy)-N-(3-cyclopropyl-1-methyl-1H-pyrazol-5-yl)azetidine-1-carboxamide] reads 10 to 79.4 nM; that for `CCCCn1nnnc1NC(=O)[C@H]1C[C@H](Oc2cc(F)ccc2OC(F)F)C1` [Example 2, (trans)-N-(1-Butyl-1H-tetrazol-5-yl)-3-(2-(difluoromethoxy)-5-fluorophenoxy)cyclobutanecarboxamide], 10 to 79.4 nM. Consider `CC1C(Oc2cc(F)cc3scnc23)CN1C(=O)N[C@H]1CC[C@H](C(C)(C)O)CC1` (mixture of isomers) [Example 236, Racemic 3-((6-Fluorobenzo[d]thiazol-4-yl)oxy)-N-((trans)-4-(2-hydroxypropan-2-yl)cyclohexyl)-2-methylazetidine-1-carboxamide], for which the IC50 is 10 to 79.4 nM. The result for `O=C(NC1CCN(c2ccccn2)CC1)N1CC(Oc2cccc3scnc23)C1` [Example 88, 3-(Benzo[d]thiazol-4-yloxy)-N-(1-(pyridin-2-yl)piperidin-4-yl)azetidine-1-carboxamide] reads 10 to 79.4 nM; that for `O=C(Nc1nc(C(F)(F)F)cs1)[C@H]1C[C@H](Oc2cccc3cccnc23)C1` [Example 201, (trans)-3-(Quinolin-8-yloxy)-N-(4-(trifluoromethyl)thiazol-2-yl)cyclobutanecarboxamide], 10 to 79.4 nM; that for `CC(C)(O)[C@H]1CC[C@H](NC(=O)[C@H]2C[C@H](Oc3cc(F)ccc3Cl)C2)CC1` [Example 230, (trans)-3-(2-Chloro-5-fluorophenoxy)-N-((trans)-4-(2-hydroxypropan-2-yl)cyclohexyl)cyclobutanecarboxamide], 100 to 1000 nM. Consider `CC1(NC(=O)N2CC(Oc3cccc4scnc34)C2)CN(c2ncccn2)C1` [Example 251], for which the IC50 is 100 to 1000 nM. The result for `CC(C)(O)c1csc(NC(=O)N2CC(Oc3cccc4scnc34)C2)n1` [Example 56, 3-(Benzo[d]thiazol-4-yloxy)-N-(4-(2-hydroxypropan-2-yl)thiazol-2-yl)azetidine-1-carboxamide] reads 100 to 1000 nM.

Turning to `Cc1nccc(N2CC(NC(=O)[C@H]3C[C@H](Oc4cc(F)cc5scnc45)C3)C2)n1` [Example 123, (trans)-3-((6-Fluorobenzo[d]thiazol-4-yl)oxy)-N-(1-(2-methylpyrimidin-4-yl)azetidin-3-yl)cyclobutanecarboxamide], the IC50 is 10 to 79.4 nM. In the case of `C[C@]1(O)CC[C@H](NC(=O)[C@H]2C[C@H](Oc3cccc4cccnc34)C2)CC1` [Example 182, (trans)-N-((trans)-4-Hydroxy-4-methylcyclohexyl)-3-(quinolin-8-yloxy)cyclobutanecarboxamide] it was 100 to 1000 nM.

On to `CC(C)(C)OC(=O)N[C@H]1C[C@H](NC(=O)[C@H]2C[C@H](Oc3cccc4scnc34)C2)C1` [Example 66, tert-butyl ((trans)-3-((trans)-3-(benzo[d]thiazol-4-yloxy)cyclobutanecarboxamido)cyclobutyl)carbamate], for which the IC50 was 100 to 1000 nM. The result for `CC(C)(O)[C@@H]1CC[C@@H](NC(=O)N2CC(Oc3cc(F)cc4scnc34)C2)CO1` (racemic) [Example 127, Racemic 3-((6-Fluorobenzo[d]thiazol-4-yl)oxy)-N-((trans)-6-(2-hydroxypropan-2-yl)tetrahydro-2H-pyran-3-yl)azetidine-1-carboxamide] reads 10 to 79.4 nM. The result for `CC(C)(O)Cc1csc(NC(=O)[C@H]2C[C@H](Oc3cccc4cccnc34)C2)n1` [Example 209, (trans)-N-(4-(2-Hydroxy-2-methylpropyl)thiazol-2-yl)-3-(quinolin-8-yloxy)cyclobutanecarboxamide trifluoroacetic acid salt] reads 10 to 79.4 nM; that for `COC(=O)N1CCOC(CNC(=O)N2CC(Oc3cccc4scnc34)C2)C1` (racemic) [Example 94, Racemic Methyl 2-((3-(benzo[d]thiazol-4-yloxy)azetidine-1-carboxamido)methyl)morpholine-4-carboxylate], 100 to 1000 nM; that for `C[C@H]1[C@@H](Oc2cccc3scnc23)CN1C(=O)N[C@H]1CC[C@H](C(C)(C)O)CC1` [Example 304, (2S,3S)-3-(Benzo[d]thiazol-4-yloxy)-N-((trans)-4-(2-hydroxypropan-2-yl)cyclohexyl)-2-methylazetidine-1-carboxamide], 10 to 79.4 nM.

Turning to `CC(=O)c1csc(NC(=O)[C@H]2C[C@H](Oc3cccc4cccnc34)C2)n1` [Example 186, trans-N-(4-Acetylthiazol-2-yl)-3-(quinolin-8-yloxy)cyclobutanecarboxamide], the IC50 was 10 to 79.4 nM.

The values are drawn from patent publication US11053234B2 (GlaxoSmithKline Intellectual Property Development Limited, priority 2016, dated 2021).
